Source: patent US20190291112A1, “DROPLET MICROFLUIDICS FOR DRUG SCREENING” (University of Macau, priority 2018, published 2019)

Assays:
Assay type in all cases: cell-based, human
[1] = test system: derived cell line NAS1604C; assay: On chip drug screening of derived cell line
Experimental: On chip drug screening was performed using the PDMS-based microfluidic chip as described above. A 500 μL glass syringe (Hamilton, USA) and polytetrafluoroethylene (PTFE) tubings with appropriate bore (Cole Parmer, USA) was used to connect between the syringe pump (Harvard Apparatus PHD Ultra Syringe Pump, USA) and the microfluidic chip. Fluorinert® FC-40 (Sigma-Aldrich, USA) supplemented with 2% 008-Fluorosurfactant (Ran Biotechnologies, USA) was used as oil phase; relevant cell culture medium, supplemented with 1% (w/v) methyl cellulose (Sigma-Aldrich, USA) was used as aqueous phase. Cells treated with 0.1% dimethyl sulfoxide (DMSO) were used as negative control.
Briefly, cells at final concentrations of 1-2×10^6 cells per mL were aliquoted in 0.2 mL PCR tubes, then mixed with corresponding drugs and 2 μM ethidium homodimer 1 (Life Technologies, USA) by manual pipetting. Next, […], cell-drug mixtures were loaded into the tubing, consecutively segregated by oil phase at withdrawal rate of 200 μL/h by syringe pump. After loading all mixtures, the tubing was inserted into the microfluidic chip, which was back-flushed with oil phase at 500 μL/h by syringe pump. After that, the mixtures were infused at 25 μL/h by syringe pump. Finally, the inlet and outlet tubings were cut and sealed with Vaseline (Vaseline, USA). The chips were placed in 150 mm cell culture dish (Coming, USA) containing wet paper towels, and transferred to humidified incubator at 37° C. supplemented with 5% CO2 for 16-24 h incubation. Brightfield and red fluorescence images (Ex. 531/40 nm, Em. 593/40 nm) were taken under 10× magnification (Life Technologies EVOS FL Imaging System, USA).
(§1) For on chip assays, the number of cells was counted in brightfield and red fluorescence images from each well respectively. Cell viability was calculated as follows: […]
where Total cells and Dead cells referred to the total number of cells counted from brightfield and red fluorescence images, respectively.
Drug susceptibility between the primary tumor cell NAS1604 and its derived cell line NAS1604C was compared (FIG. 9). […] Here, the concept of droplet cell viability was introduced to indicate the total number of live cells among all cells in each individual droplet; in turn, the range of droplet cell viability referred to the range of cell viability of all droplets under specified treatment condition. […] On the other hand, mean cell viability of all treatment conditions were higher in the derived cell line NAS1604C than corresponding conditions in the primary tumor cell NAS1604, reminiscent of increased cell viability that was required for tumor amplification.

[2] = test system: Jurkat cells; assay: 384-well microtiter plate drug screening assay (Alamar Blue); settings: 384-well plate, 16-24 h
Experimental: (§2) Jurkat E6.1 cells (ATCC® TIB-152™) and MDA-MB-231 cells (ATCC® HTB-26™) were used as models for suspended and adherent cancer cell lines respectively. Jurkat cell line was derived from human acute T cell leukemia, whereas MDA-MB-231 cell line was derived from human metastatic breast adenocarcinoma.
(§3) Microtiter plate drug screening assays were carried out on 96-well clear round flat-bottom plates (Corning, USA) or 384-well white square flat-bottom plates (Corning, USA).
(§4) First, 5.0×10^5 or 1.0×10^5 cells were seeded per well for 96-well and 384-well plates respectively. Drugs were diluted with Dulbecco's phosphate-buffered saline (DPBS) (Life Technologies, USA), and subsequently added to achieve final drug concentrations as indicated on the graphs. Afterwards, the plates were transferred to humidified incubator at 37° C. supplemented with 5% CO2 for 16-24 h incubation. Finally, Alamar Blue assay was used to measure cell viability. Fluorescence intensity (Ex. 560 nm, Em. 590 nm) using auto-cutoff was measured from bottom on plate reader (Molecular Devices SpectraMax MS Plate Reader, USA). Cells treated with 0.1% dimethyl sulfoxide (DMSO) were used as negative control, while no cells were added to blank control. All experiments were performed in triplicate for 96-well plates and in quadruplicates for 384-well relates.
(§5) For microliter plate assays, average relative fluorescence signal measured by plate reader from 6 reads of each well was used as raw data point. Cell viability was calculated as follows: […]
(§6) where Sample represented raw data points of each sample well, whereas DMSO control and Blank represented average raw data points of all DMSO control and Blank wells, respectively.

[3] = test system: MDA-MB-231 cells; assay: as above; settings: 384-well plate
Experimental: as §2, §3, §4, §5, §6

[4] = test system: NAS1607 primary nasopharyngeal tumor sample; assay: On chip drug screening of primary tumor dissociated cells
Experimental: All human studies were conducted with the approval of the Panel on Research Ethics of University of Macau and the Research Ethics Committee of Kiang Wu Hospital, according to the Materials Transfer Agreement between University of Macau and Kiang Wu Hospital. Informed consent for sampling and publication without identifiable information was obtained from all participating patients. All patient sample names were double encoded by the university and the hospital, respectively, to remove any trace of patient identity during sample collection, transfer, processing and analysis. Primary tumors were obtained from surgery conducted at Kiang Wu Hospital immediately after tumor resection. Tumor tissue was dissociated as previously described. Briefly, tumor tissue was first cut into small pieces by a scalpel, then transferred to a 50 mL conical tube containing 5 mL Digestion Buffer I (DMEM/F12 medium containing 5% FBS, 5 μg/mL insulin, 500 ng/mL hydrocortisone, 10 ng/mL epidermal growth factor (EGF), 20 ng/mL cholera toxin, 300 U/mL collagenase III and 100 U/mL hyaluronidase), and digested for no more than 12 h with shaking at 100 rpm in humidified incubator at 37° C. supplemented with 5% CO2. After spinning down at 400 g at ambient temperature for 2 min, the cells were resuspended with 2 mL Digestion Buffer II (DMEM/F12 medium containing 5 mg/mL dispase II and 0.1 mg/mL deoxyribonuclease I), followed by digestion at ambient temperature for 5 min. The cells were then washed with 10 mL HBSS (Life Technologies, USA). […]
Briefly, cells at final concentrations of 1-2×10^6 cells per mL were aliquoted in 0.2 mL PCR tubes, then mixed with corresponding drugs and 2 μM ethidium homodimer 1 (Life Technologies, USA) by manual pipetting. […] Brightfield and red fluorescence images (Ex. 531/40 nm, Em. 593/40 nm) were taken under 10× magnification (Life Technologies EVOS FL Imaging System, USA).
as §1

IC50 ([2]; Homo sapiens) [µM] | Compound | droplet cell viability range ([1]; 1 μM bortezomib) [%] | droplet cell viability range after removal of one droplet outlier ([1]; 1 μM bortezomib) [%] | cell viability compared with mock treatment ([1]; 1 μM, versus DMSO) | viability at 10 µM ([3]; Homo sapiens, 10.0 μM dose, read-out: cell viability) [%] | dose dependence of normalized cell viability ([4]; NAS1607, 16-24 h, normalized to mock treatment) | droplet cell viability range ([1]; 11 μM cisplatin) [%] | droplet cell viability range ([1]; 33 μM cisplatin) [%] | droplet cell viability range after removal of one droplet outlier ([1]; 33 μM cisplatin) [%] | dose dependence of response ([1]; 11 and 33 μM) | IC50 [2] [µM] | IC50 [3] [µM] | susceptibility ([4]; NAS1607, 100 μM and 33 μM)
0.039 | CC(C)C[C@H](NC(=O)[C@H](Cc1ccccc1)NC(=O)c1cnccn1)B(O)O [bortezomib] | 37.5 | 16.1 | highest cell viability | 50 | inverse correlation | – | – | – | – | – | – | –
– | N.N.[Cl][Pt][Cl] [cisplatin] | – | – | – | – | – | 36.5 | 71.6 | 40.8 | dose-dependent response | 39 | > 50 | leveled off
